Tests used:
RORγ-LBD = biological target: T1, RORγ-LBD (Homo sapiens, UniProt P51449); assay: RORγ-Ligand Binding Domain (LBD) TR-FRET Assay; type: biochemical; conditions: for EC50: in presence of 2 μM RORγ antagonist ursolic acid, SRC1 coactivator peptide; for TR-FRET Assay Max Response: upper plateau of 4-parameter fit, signal in the absence of ursolic acid or test compound set as 100
T1 construct: made in house; host or cells: SF9 cells, baculovirus expression system; used as diluted lysate
T1 sequence (P51449 269-508 limits assumed): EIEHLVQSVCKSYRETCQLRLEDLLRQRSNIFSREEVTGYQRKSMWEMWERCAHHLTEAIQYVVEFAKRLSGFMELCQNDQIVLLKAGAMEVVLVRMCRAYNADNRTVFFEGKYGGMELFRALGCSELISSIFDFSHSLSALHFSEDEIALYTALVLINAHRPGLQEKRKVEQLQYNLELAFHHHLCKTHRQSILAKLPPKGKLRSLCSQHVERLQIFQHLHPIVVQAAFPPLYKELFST
Description: HIS-tagged RORγ-LBD protein was expressed in SF9 cells using a baculovirus expression system. The lysate was diluted in assay buffer (50 mM Tris pH 7.0, 50 mM KCl, 1 mM EDTA, 0.1 mM DTT, 0.01% BSA) to obtain RORγ-LBD final concentration of ˜3 nM in a 384-well assay plate (need to titrate for each batch of protein).
A stock of biotinylated-LXXLL peptide from coactivator SRC1 (Biotin-[…]) was prepared in assay buffer and added to each well (200 nM final concentration). A solution of Europium tagged anti-HIS antibody (0.6 nM final concentration) and APC-conjugated streptavidin (30 nM final concentration) were also added to each well. RORγ antagonist ursolic acid was also included at a final concentration of 2 μM. Compounds were diluted in DMSO and further diluted in assay buffer with a final DMSO concentration at 1%.
The final assay mixture was incubated overnight at 4° C. or 2 hours at room temperature, and the fluorescence signal was measured on an Envision plate reader: (Excitation filter=340 nm; APC emission=665 nm; Europium emission=615 nm; dichroic mirror=D400/D630; delay time=100 μs, integration time=200 μs). 50% Effective concentration (EC50) values for test compounds were calculated from the quotient of the fluorescence signal at 665 nm divided by the fluorescence signal at 615 nm. The quotient of the fluorescence signals in the absence of ursolic acid or test compound is set as 100. Max Response is defined as the upper plateau in the signal as determined by line-fit using a 4-parameter logistic model in PRISM (GraphPad).

Gal4-RORγ-LBD = biological target: T2, Gal4-RORγ-LBD (Homo sapiens, UniProt P51449); assay: Gal4-RORγ Luciferase Reporter Assay in HEK-293T Cells; type: cell-based; conditions: for EC50: HEK-293 cells, in presence of 2 μM ursolic acid, overnight incubation, read-out: Ga14-RORγ Assay EC50; for Ga14-RORγ Assay Max Response: upper plateau of 4-parameter fit, luciferase signal in the absence of ursolic acid or test compound defined at 100
T2 construct: expressed in transfected cells; pcDNA3.1neo plasmid, co-transfected with pGL4.31 Gal4-luciferase reporter
T2 sequence (P51449 269-508 limits assumed): T1 sequence (P51449 269-508 limits assumed)
Description: In the following protocol, HEK-293 cells were transfected with a construct comprising the Gal4 DNA binding domain fused to the ligand binding domain of RORγ (Gal4-RORγ-LBD) in a pcDNA3.1neo plasmid, and also with a reporter construct comprising pGL4.31 Gal4-luciferase (Promega). Control cells were prepared similarly using empty pcDNA3.1neo and pGL4.31 vectors.
Trans-IT reagent (Mirus, 60 μL) at room temperature was added drop wise to OptiMEM (Invitrogen, 1.5 ml). This reagent mixture was mixed by inversion then incubated for 5 to 30 minutes at room temperature. It then was added to a solution of both expression vectors (5 μg each), mixed, and incubated at room temperature for about 20 minutes. HEK-293 cells were harvested from incubation flasks by removing the media, treating with TrypLE Express (Invitrogen), and incubating until the cells detached from the bottom of the flask (approximately 2-5 minutes). 10 Million cells were collected by centrifugation and re-suspended in 10 mL of Dulbecco's Modified Eagle Medium, High Glucose (DMEM, Invitrogen) containing 10% Fetal Bovine Serum and 100 IU each of penicillin and streptomycin. The re-suspended cells and the transfection mixture were added to a T75 flask, mixed and incubated overnight at 37° C. and 5% CO2.
The cells were harvested as described above, counted, and centrifuged to obtain the desired number of cells, then re-suspended in complete growth media at 0.75×10^6 cells/mL. The RORγ antagonist, ursolic acid, was added to the cells at a final concentration of 2 μM. Cells were plated at 20 μL of cell suspension/well (10,000-15,000 cells/well) in white tissue culture treated 384 well plates. Test compounds were dissolved at 10 mM in DMSO then diluted into complete growth medium to 5× the final intended test concentration. These drug stock solutions, 5 μL/well were added to the tissue culture plate. The final DMSO concentration was 0.2%. The plates were briefly centrifuged then incubated overnight at 37° C. and 5% CO2. To conduct the assay, the tissue culture plates were allowed to equilibrate to room temperature and One-Glo luciferase reagent (Promega, 25 μL/well) was added. The plates were briefly centrifuged then incubated at room temperature for 10 minutes. The luciferase intensity was read on an Envision plate reader (Perkin Elmer). RORγ activity was determined relative to controls and plotted as a function of test compound concentration using PRISM (GraphPad) to determine a 50% effective concentration (EC50). The luciferase signal in the absence of ursolic acid or test compound is defined at 100. The Max Response is the upper plateau in the signal as determined by line-fit using a 4-parameter logistic model in PRISM (GraphPad).

| SMILES | EC50 (RORγ-LBD) [nM] | TR-FRET Assay Max Response (RORγ-LBD) | EC50 (Gal4-RORγ-LBD) [nM] | Ga14-RORγ Assay Max Response (Gal4-RORγ-LBD) |
| --- | --- | --- | --- | --- |
| C/C(=C\c1ccc2c(c1)N(S(=O)(=O)c1cccc(C(F)(F)F)c1)C[C@H](Oc1n[nH]c(=O)[nH]1)C2)c1c(F)cccc1Cl | < 100 | *** (a value in the range of greater than 150 to 200) | 5000 to 10000 | ** (a value in the range of greater than 90 to 150) |
| O=c1[nH]nc(CC[C@H]2CN(S(=O)(=O)c3cccc(C(F)(F)F)c3)c3cc(/C=C/c4c(Cl)cccc4C(F)(F)F)ccc3O2)o1 | < 100 | *** (a value in the range of greater than 150 to 200) | 100 to 5000 | ** (a value in the range of greater than 90 to 150) |
| COc1cc(S(=O)(=O)N2C[C@H](CCc3n[nH]c(=O)o3)Oc3ccc(/C=C(\C)c4c(F)cccc4Cl)cc32)ccc1F | < 100 | ** (a value in the range of greater than 90 to 150) | 100 to 5000 | ** (a value in the range of greater than 90 to 150) |
| C/C(=C\c1ccc2c(c1)N(S(=O)(=O)c1cccc(C(F)(F)F)c1)C[C@H](CCn1cccn1)O2)c1c(F)cccc1Cl | < 100 | *** (a value in the range of greater than 150 to 200) | 100 to 5000 | ** (a value in the range of greater than 90 to 150) |
| C/C(=C\c1ccc2c(c1)N(S(=O)(=O)c1cccc(C(F)(F)F)c1)C[C@H](CCCn1ccnn1)O2)c1c(F)cccc1Cl | < 100 | *** (a value in the range of greater than 150 to 200) | 100 to 5000 | ** (a value in the range of greater than 90 to 150) |
| O=c1[nH]nc(CC[C@H]2CN(S(=O)(=O)c3cccc(C(F)(F)F)c3)c3cc(/C=C/c4ncccc4C(F)(F)F)ccc3O2)o1 | < 100 | *** (a value in the range of greater than 150 to 200) | 100 to 5000 | ** (a value in the range of greater than 90 to 150) |
| C/C(=C\c1ccc2c(c1)N(S(=O)(=O)c1cccc(C(F)(F)F)c1)C[C@H](CCn1ccnc1)O2)c1c(F)cccc1Cl | < 100 | *** (a value in the range of greater than 150 to 200) | 100 to 5000 | ** (a value in the range of greater than 90 to 150) |
| C/C(=C\c1ccc2c(c1)N(S(=O)(=O)c1cccc(C(F)(F)F)c1)C[C@H](CCn1ccnc1C)O2)c1c(F)cccc1Cl | < 100 | *** (a value in the range of greater than 150 to 200) | 100 to 5000 | ** (a value in the range of greater than 90 to 150) |
| C/C(=C\c1ccc2c(c1)N(S(=O)(=O)c1cccc(C(F)(F)F)c1)C[C@H](CCCc1noc(=O)[nH]1)O2)c1c(F)cccc1Cl | 100 to 5000 | *** (a value in the range of greater than 150 to 200) | 100 to 5000 | ** (a value in the range of greater than 90 to 150) |
| CCOc1ncc(Cl)cc1S(=O)(=O)N1C[C@H](CCc2n[nH]c(=O)o2)Oc2ccc(/C=C(\C)c3c(F)cccc3Cl)cc21 | < 100 | *** (a value in the range of greater than 150 to 200) | 100 to 5000 | ** (a value in the range of greater than 90 to 150) |
| C/C(=C\c1ccc2c(c1)N(S(=O)(=O)c1cccc(C(F)(F)F)c1)C[C@H](CCOc1noc(=O)[nH]1)O2)c1c(F)cccc1Cl | < 100 | *** (a value in the range of greater than 150 to 200) | 100 to 5000 | ** (a value in the range of greater than 90 to 150) |
| COc1cc(S(=O)(=O)N2C[C@H](CCOc3noc(=O)[nH]3)Oc3ccc(/C=C(\C)c4c(F)cccc4Cl)cc32)ccc1F | < 100 | *** (a value in the range of greater than 150 to 200) | 100 to 5000 | **** (a value greater than 200) |

From patent US10421751B2, “Dihydro-2H-benzo[b][1,4]oxazine sulfonamide and related compounds for use as agonists of RORγ and the treatment of disease” (Lycera Corporation, priority 2015, dated 2019)
